The values below come from paper PMC8150835, “An Smp43-Derived Short-Chain α-Helical Peptide Displays a Unique Sequence and Possesses Antimicrobial Activity against Both Gram-Positive and Gram-Negative Bacteria” (Toxins, 2021).

Holding throughout (format): cell-based
The test system of data set [1] is Escherichia coli ATCC25922. As to the kind of experiment: MIC determination (broth microdilution). The settings on record: MHB, 5 × 10^5 CFU/mL, peptide 0.625 to 40 μg/mL, 37 °C, 18 h, OD 630 nm. The procedure: (§1) The antimicrobial activities of the peptides were tested against S. aureus ATCC29213, E. faecalis ATCC29212, E. coli ATCC25922, K. pneumoniae ATCC700603, P. aeruginosa ATCC27853 and A. baumannii ATCC19606. All these strains were purchased from the China Center of Type Culture Collection (CCTCC).
(§2) The antimicrobial activities of the peptides were determined as previously described. Briefly, the bacteria were incubated at 37 °C and 150 rpm until the log phase of growth. Next, the bacteria were diluted with Mueller-Hinton broth (MHB, Oxoid, UK) and prepared in a clear round-bottom polypropylene 96-well microtiter plate to achieve a final concentration of 5 × 10^5 colony-forming unit (CFU)/mL. Twofold serial dilutions of the peptides were added into each well with the concentrations ranging from 0.625 to 40 μg/mL. The mixed peptides and cells were cultured at 37 °C and 150 rpm for 18 h, and the optical density (OD) was measured at 630 nm. The minimum inhibitory concentration was defined as the lowest peptide concentration with no detectable bacterial growth.
Background: In broth dilution the organism is exposed to a series of concentrations in liquid medium.

Data set [2] concerns Acinetobacter baumannii ATCC19606. Nature of the data set: MIC determination (broth microdilution). To be noted: MHB, 5 × 10^5 CFU/mL, peptide 0.625 to 40 μg/mL, 37 °C, 18 h, OD 630 nm. As for the experimental part: as §1, §2
In data set [3] the test system is Pseudomonas aeruginosa ATCC27853. Nature of the data set: MIC determination (broth microdilution). The settings on record: MHB, 5 × 10^5 CFU/mL, peptide 0.625 to 40 μg/mL, 37 °C, 18 h, OD 630 nm. As for the experimental part: as §1, §2
The test system of data set [4] is Staphylococcus aureus ATCC29213. As to the kind of experiment: MIC determination (broth microdilution). The settings on record: MHB, 5 × 10^5 CFU/mL, peptide 0.625 to 40 μg/mL, 37 °C, 18 h, OD 630 nm. The procedure:
as §1, §2

Data set [5] has as its system Klebsiella pneumoniae ATCC700603. As to the kind of experiment: MIC determination (broth microdilution). To be noted: MHB, 5 × 10^5 CFU/mL, peptide 0.625 to 40 μg/mL, 37 °C, 18 h, OD 630 nm. As for the experimental part: as §1, §2
The subject of data set [6] is Enterococcus faecalis ATCC29212. Nature of the data set: MIC determination (broth microdilution). To be noted: MHB, 5 × 10^5 CFU/mL, peptide 0.625 to 40 μg/mL, 37 °C, 18 h, OD 630 nm. The procedure: as §1, §2
The test system of a further data set is human red blood cells. Nature of the data set: Hemolytic activity determination. To be noted: 2% (v/v) hRBCs, peptide 12.5-200 μg/mL, 37 °C, 1 h, absorbance 540 nm; 1% Triton X-100 = 100%; three independent experiments. The procedure: The hemolytic activities of the peptides were determined against human red blood cells (hRBCs). Briefly, fresh hRBCs anticoagulated with sodium citrate were rinsed with 0.9% sodium chloride by centrifugation (1000× g, 5 min). Then, the cells were diluted to a final concentration of 2% (v/v) and prepared in a clear 96-well polypropylene microtiter plate. Next, the samples were mixed with a series of concentrations of the peptide (12.5, 25, 50, 100 and 200 μg/mL) and incubated at 37 °C for 1 h. After that, the samples were centrifuged (2000× g, 10 min), and the absorbances of the supernatants were measured at 540 nm to evaluate the release of hemoglobin. HRBCs treated with 1% Triton X-100 or 0.9% sodium chloride were taken as 100% and 0% hemolysis, respectively.

SMILES strings stand for the structures. Where a SMILES comes first, the peptide text is derived from it.

Take `CC[C@H](C)[C@H](NC(=O)[C@H](CCCCN)NC(=O)[C@H](CCC(=O)O)NC(=O)[C@H](C)NC(=O)[C@@H](NC(=O)[C@H](Cc1ccccc1)NC(=O)[C@H](CC(N)=O)NC(=O)[C@H](CCCCN)NC(=O)[C@H](C)NC(=O)[C@H](C)N)C(C)C)C(=O)NCC(=O)N[C@@H](C)C(=O)N[C@H](C(=O)N1CCC[C@H]1C(N)=O)[C@@H](C)O` [Smp43(29-42)] (H-AAKNFVAEKIGATP-NH2): the minimum inhibitory concentration (MIC) in data set [1], in data set [2], in data set [3], in data set [4], in data set [5] and in data set [6] was greater than 40 µg/mL in each case. Also, the “HC10: the concentration of the peptide that causes 10% hemolysis of human red blood cells” value in the data set on human red blood cells was greater than 200 µg/mL.

Consider `CC(C)C[C@H](NC(=O)[C@H](C)NC(=O)[C@H](CCC(N)=O)NC(=O)[C@H](CO)NC(=O)[C@@H](N)CCCCN)C(=O)N[C@@H](CC(N)=O)C(=O)N[C@@H](C)C(=O)N[C@@H](C)C(=O)N[C@@H](CCCCN)C(=O)N[C@@H](CC(N)=O)C(=O)N[C@@H](Cc1ccccc1)C(=O)N[C@H](C(=O)N[C@@H](C)C(=O)N[C@@H](CCC(=O)O)C(N)=O)C(C)C` [Smp43(23-36)] (H-KSQALNAAKNFVAE-NH2), for which the MIC in data set [1], in data set [2], in data set [3], in data set [4], in data set [5] and in data set [6] was greater than 40 µg/mL each time. The “HC10: the concentration of the peptide that causes 10% hemolysis of human red blood cells” value in the data set on human red blood cells is greater than 200 µg/mL.

With `CC(C)C[C@H](NC(=O)[C@H](C)N)C(=O)N[C@@H](CCCCN)C(=O)N[C@@H](CO)C(=O)N[C@@H](CCC(N)=O)C(=O)N[C@@H](C)C(=O)N[C@@H](CC(C)C)C(=O)N[C@@H](CC(N)=O)C(=O)N[C@@H](C)C(=O)N[C@@H](C)C(=O)N[C@@H](CCCCN)C(=O)N[C@@H](CC(N)=O)C(=O)N[C@@H](Cc1ccccc1)C(=O)N[C@H](C(N)=O)C(C)C` [Smp43(21-34)] (H-ALKSQALNAAKNFV-NH2), the MIC in data set [1], in data set [2], in data set [3], in data set [4], in data set [5] and in data set [6] was greater than 40 µg/mL in each case. The “HC10: the concentration of the peptide that causes 10% hemolysis of human red blood cells” value with human red blood cells is greater than 200 µg/mL.

Consider `CC(C)C[C@H](NC(=O)[C@H](C)NC(=O)[C@H](CCC(N)=O)NC(=O)[C@H](CO)NC(=O)[C@H](CCCCN)NC(=O)[C@H](CC(C)C)NC(=O)[C@H](C)NC(=O)[C@H](CCCCN)NC(=O)[C@@H](NC(=O)[C@@H]1CCCN1C(=O)[C@H](CCC(=O)O)NC(=O)[C@H](CO)NC(=O)[C@@H](N)CC(N)=O)C(C)C)C(=O)N[C@@H](CC(N)=O)C(N)=O` [Smp43(15-28)] (H-NSEPVKALKSQALN-NH2), for which the minimum inhibitory concentration (MIC) in data set [1], in data set [2], in data set [3], in data set [4], in data set [5] and in data set [6] was greater than 40 µg/mL throughout. In the data set with human red blood cells, the “HC10: the concentration of the peptide that causes 10% hemolysis of human red blood cells” value is greater than 200 µg/mL.

With `CC(C)C[C@H](NC(=O)[C@H](C)NC(=O)[C@H](CCC(N)=O)NC(=O)[C@H](CO)NC(=O)[C@H](CCCCN)NC(=O)[C@H](CC(C)C)NC(=O)[C@H](C)NC(=O)[C@H](CCCCN)NC(=O)[C@@H](N)C(C)C)C(=O)N[C@@H](CC(N)=O)C(=O)N[C@@H](C)C(=O)N[C@@H](C)C(=O)N[C@@H](CCCCN)C(=O)N[C@@H](CC(N)=O)C(N)=O` [Smp43(19-32)] (H-VKALKSQALNAAKN-NH2), the MIC in data set [1], in data set [2], in data set [3], in data set [4], in data set [5] and in data set [6] was greater than 40 µg/mL in each case. Also, the “HC10: the concentration of the peptide that causes 10% hemolysis of human red blood cells” value in the data set on human red blood cells was greater than 200 µg/mL.

For `CC(C)C[C@H](NC(=O)[C@H](C)NC(=O)[C@H](CCC(N)=O)NC(=O)[C@H](CO)NC(=O)[C@H](CCCCN)NC(=O)[C@H](CC(C)C)NC(=O)[C@H](C)NC(=O)[C@H](CCCCN)NC(=O)[C@@H](NC(=O)[C@@H]1CCCN1C(=O)[C@@H](N)CCC(=O)O)C(C)C)C(=O)N[C@@H](CC(N)=O)C(=O)N[C@@H](C)C(=O)N[C@@H](C)C(N)=O` [Smp43(17-30)] (H-EPVKALKSQALNAA-NH2), the MIC in data set [1], in data set [2], in data set [3], in data set [4], in data set [5] and in data set [6] was greater than 40 µg/mL throughout. For the same compound, in the data set on human red blood cells, the “HC10: the concentration of the peptide that causes 10% hemolysis of human red blood cells” value is greater than 200 µg/mL.

Consider `CC[C@H](C)[C@H](NC(=O)[C@H](CCCCN)NC(=O)CNC(=O)[C@H](C)NC(=O)[C@@H](NC(=O)[C@H](CCCCN)NC(=O)[C@H](CCCCN)NC(=O)[C@@H](NC(=O)[C@H](Cc1c[nH]c2ccccc12)NC(=O)[C@H](CC(=O)O)NC(=O)[C@@H](N)Cc1c[nH]c2ccccc12)[C@@H](C)CC)[C@@H](C)O)C(=O)N[C@@H](Cc1c[nH]c2ccccc12)C(=O)N[C@@H](CC(N)=O)C(=O)N[C@@H](CO)C(N)=O` [Smp43(3-16)] (H-WDWIKKTAGKIWNS-NH2), for which the MIC in data set [1], in data set [2], in data set [3], in data set [4], in data set [5] and in data set [6] was greater than 40 µg/mL throughout. In addition, the “HC10: the concentration of the peptide that causes 10% hemolysis of human red blood cells” value in the data set on human red blood cells is greater than 200 µg/mL.

As to `CC[C@H](C)[C@H](NC(=O)[C@H](CCCCN)NC(=O)CNC(=O)[C@H](C)NC(=O)[C@@H](NC(=O)[C@H](CCCCN)NC(=O)[C@@H](N)CCCCN)[C@@H](C)O)C(=O)N[C@@H](Cc1c[nH]c2ccccc12)C(=O)N[C@@H](CC(N)=O)C(=O)N[C@@H](CO)C(=O)N[C@@H](CCC(=O)O)C(=O)N1CCC[C@H]1C(=O)N[C@H](C(=O)N[C@@H](CCCCN)C(N)=O)C(C)C` [Smp43(7-20)] (H-KKTAGKIWNSEPVK-NH2), the minimal inhibitory concentration (MIC) in data set [1], in data set [2], in data set [3], in data set [4], in data set [5] and in data set [6] was greater than 40 µg/mL each time. In addition, in the data set on human red blood cells, the “HC10: the concentration of the peptide that causes 10% hemolysis of human red blood cells” value is greater than 200 µg/mL.

Turning to `CC[C@H](C)[C@H](NC(=O)[C@H](CCCCN)NC(=O)[C@H](CCC(=O)O)NC(=O)[C@H](C)NC(=O)[C@@H](NC(=O)[C@H](Cc1ccccc1)NC(=O)[C@H](CC(N)=O)NC(=O)[C@H](CCCCN)NC(=O)[C@H](C)NC(=O)[C@H](C)NC(=O)[C@H](CC(N)=O)NC(=O)[C@H](CC(C)C)NC(=O)[C@H](C)NC(=O)[C@@H](N)CCC(N)=O)C(C)C)C(N)=O` [Smp43(25-38)] (H-QALNAAKNFVAEKI-NH2), the MIC in data set [1], in data set [2], in data set [3], in data set [4], in data set [5] and in data set [6] was greater than 40 µg/mL each time. Moreover, the “HC10: the concentration of the peptide that causes 10% hemolysis of human red blood cells” value with human red blood cells is greater than 200 µg/mL.

In the case of `CC[C@H](C)[C@H](NC(=O)[C@H](CCCCN)NC(=O)[C@H](CCC(=O)O)NC(=O)[C@H](C)NC(=O)[C@@H](NC(=O)[C@H](Cc1ccccc1)NC(=O)[C@H](CC(N)=O)NC(=O)[C@H](CCCCN)NC(=O)[C@H](C)NC(=O)[C@H](C)NC(=O)[C@H](CC(N)=O)NC(=O)[C@@H](N)CC(C)C)C(C)C)C(=O)NCC(=O)N[C@@H](C)C(N)=O` [Smp43(27-40)] (H-LNAAKNFVAEKIGA-NH2), the minimum inhibitory concentration (MIC) in data set [1], in data set [2], in data set [3], in data set [4], in data set [5] and in data set [6] was greater than 40 µg/mL throughout. Besides, in the data set on human red blood cells, the “HC10: the concentration of the peptide that causes 10% hemolysis of human red blood cells” value was greater than 200 µg/mL.

Broadly, the MIC is the least concentration at which growth counts as inhibited. The low end stands for inhibition by little substance, the high end for a need for much substance.
